For assay [1], the system named is dextran-induced rat paw edema. Kind of assay: Dextran-induced rat paw edema test. Type of assay: in vivo. The settings on record: for Percentage of inhibition: 50 mg/kg (p.o.). As to the method:
3) Dextran-induced rat paw edema test The method of S. Gourvaisier and R. Ducrot [Arch. Int. Pharmacodyn. Ther. 102, 33 (1955)] was employed. The method described for the carrageenin edema test was followed, except that the measurements were carried out 30, 60, 90, 120 and 180 minutes after induction of the inflammation.

The subject of assay [2] is active local anaphylactic reaction. Kind of assay: Effect influencing the active local anaphylactic reaction on rat. Format: in vivo, rat (female OFA). Conditions: for Percentage of inhibition of the active local anaphylactic reaction: oral dose of 50 mg/kg, 30th minute after induction. The procedure:
1) The effect influencing the active local anaphylactic reaction was measured according to the method of M. Koltay [Arch. Allergy App. Immun. 71, 181 (1983)].
Female OFA rats weighing 160 to 180 g each were sensitized by bovine serum albumin (BSA) adsorbed to 50 μg of Al(OH)3 gel together with the simultaneous administration of Bordatella pertussis vaccine.
The anaphylactic reaction was elicited by injecting 100 μg of BSA into the right hind paw plant in the 14th day.
The measurements were carried out before and 30 minutes after eliciting the reaction. The animals were orally treated with the compound to be tested 1 hour before the injection of BSA. The results were expressed as percentage inhibition compared to the control group (average %±S.E.M.).

Assay [3] has as its system carrageenin-induced rat paw edema. Kind of assay: Carrageenin-induced rat paw edema test. Format: in vivo, rat (female CFY). The settings on record: for change in vivo at 50 mg/kg: Rattus norvegicus, po, 50 mg/kg (p.o.), read-out: Percentage of the protective effect; for Protective effect %: oral dose 20 mg/kg (Naproxen). The procedure: Proc. Soc. Exp. Med. 111, 544 (1962)]. Female CFY rats weighing 100 to 120 g each were used after starvation for 24 hours. The inflammation was induced by injecting 0.1 ml of 1% carrageenin solution into the right hind paw plant. The severity of inflammation was determined by using an Ugo-Basile type plethysmometer. The measurement was carried out before and 1.5, 3 and 4.5 hours after induction of the inflammation. The animals were orally treated with the substance to be tested 1 hour before administration of carrageenin. The effect was expressed as percentage inhibition related to the control group.

In assay [4] the test system is histamine-induced constriction of isolated tracheal smooth muscle of guinea pig. Kind of assay: Inhibition of the histamine-induced constriction of isolated tracheal smooth muscle of guinea pig. Conditions: Cavia porcellus, 0.25 h, isolated guinea pig trachea, read-out: Inhibition of the histamine-induced constriction of isolated tracheal smooth muscle of guinea pig pd'2 (converted). The procedure: I Study on the Effects Against Spasmogenic Mediators [modified method of J. C. […] The investigation on isolated organs were carried out as follows. OHF Lt/R9 guinea pigs of both sexes weighing 300 to 400 g each were anaesthetized by pentobarbital. Their trachea was removed and sectioned in the opposite side to the site of smooth muscle in longitudinal direction. Subsequently, a strip-like preparation was obtained by […] cutting. […] A rest load of 0.5 g was used. Several washings were carried out during the incubation period of 30 minutes. The change in the tension of the tracheal smooth muscle was followed by using an isometric Grass FT-03 type tensiometer sensor device. A washing was made following the cumulative dose series of the given mediator (e.g. histamine). After reaching the base line, by 15 minutes after administration of the given concentration of the inhibitory (antiasthmatic) substance to be tested, the next cumulative dose series of the mediator was administered. In the case of an inhibitory action, the strength of effect, following the second dose series of the mediator, was […] in comparison to that of the first (control) series. For characterization of strength of the competitive antagonistic effect the pA2 value was determined according to the method of […] A pd'2 value was calculated [J. M. Van Rossum: Arch. Int.

Assay [5] has as its system acetylcholine-induced constriction of the isolated tracheal smooth muscle of the guinea pig. Kind of assay: Inhibition of the acetylcholine-induced constriction of isolated tracheal smooth muscle of guinea pig. Conditions: Cavia porcellus, 0.25 h, isolated guinea pig trachea, read-out: pd'2 value against acetylcholine (converted). As to the method: (§1) I Study on the Effects Against Spasmogenic Mediators
[modified method of J. C. Castillo et al.: Exp. Ther. 90, 104 (1947)]
(§2) The investigation on isolated organs were carried out as follows.
(§3) OHF Lt/R9 guinea pigs of both sexes weighing 300 to 400 g each were anaesthetized by pentobarbital. Their trachea was removed and sectioned in the opposite side to the site of smooth muscle in longitudinal direction. Subsequently, a strip-like preparation was obtained by serrately cutting.
The organ was suspended in an organ bath containing 35 ml of Krebs solution at 37° C. bubbled through by carbogen gas (consisting of 95% of oxygen and 5% of carbon dioxide).
(§4) A rest load of 0.5 g was used. Several washings were carried out during the incubation period of 30 minutes.
(§5) The change in the tension of the tracheal smooth muscle was followed by using an isometric Grass FT-03 type tensiometer sensor device. A washing was made following the cumulative dose series of the given mediator (e.g. histamine). After reaching the base line, by 15 minutes after administration of the given concentration of the inhibitory (antiasthmatic) substance to be tested, the next cumulative dose series of the mediator was administered. In the case of an inhibitory action, the strength of effect, following the second dose series of the mediator, was […] in comparison to that of the first (control) series.
For characterization of strength of the competitive antagonistic effect the pA2 value was determined according to the method of Schield [Br. J. Pharmacol. 4, 277 (1949)]. A pd'2 value was calculated [J. M. Van Rossum: Arch. Int. Pharmacodyn 143, 317 (1963)] to characterize the noncompatitive antagonistic effectivity. The higher the pA2 or pd'2 value, respectively were, the higher was the antagonistic effect.

For assay [6], the system named is serotonin-induced constriction of the isolated tracheal smooth muscle of the guinea pig. Nature of the assay: Inhibition of the serotonin-induced constriction of isolated tracheal smooth muscle of guinea pig. The settings on record: isolated guinea pig trachea, 15 min. As to the method:
as §1
[modified method of J. C.
as §2, §3, §4, §5
A pd'2 value was calculated [J. M. Van Rossum: Arch. Int. […] The higher the pA2 or pd'2 value, respectively were, the higher was the antagonistic effect.

Counter-ions that a name gives are not always drawn. Like-named read-outs stand apart in the source and are kept apart here.

Take `NC1=NN(c2cccc(C(F)(F)F)c2)CC1` [BW 755C, reference compound]: the Protective effect % in assay [1] (oral dose 50 mg/kg (BW-755C), 30 minutes) is on record as 15.4%; in assay [1] (oral dose 50 mg/kg (BW-755C), 60 minutes), 12.3%; in assay [1] (oral dose 50 mg/kg (BW-755C), 90 minutes), 17.2%; in assay [1] (oral dose 50 mg/kg (BW-755C), 120 minutes) it was 7.9%; in assay [1] (oral dose 50 mg/kg (BW-755C), 180 minutes) it was 11.3%. Besides, in assay [2] (oral dose 50 mg/kg (BW 755C)), the “Protective effect % in the 30th minute” value turned out to be 52.9%.
`C[C@@H]1C[C@H]2[C@@H]3CCC4=CC(=O)C=C[C@]4(C)[C@@]3(F)[C@@H](O)C[C@]2(C)[C@@]1(O)C(=O)CO` [Dexamethasone, dexamethasone, reference compound]: the Protective effect % in assay [1] (oral dose 0.5 mg/kg (dexamethasone), 30 minutes) is listed as 42.7%; in assay [1] (oral dose 0.5 mg/kg (dexamethasone), 60 minutes), 36.8%; in assay [1] (oral dose 0.5 mg/kg (dexamethasone), 90 minutes) it was 51.1%; in assay [1] (oral dose 0.5 mg/kg (dexamethasone), 120 minutes) it was 52.1%; in assay [1] (oral dose 0.5 mg/kg (dexamethasone), 180 minutes), 45.5%. For the same compound, in assay [2] (oral dose 0.5 mg/kg (Dexamethasone)), the “Protective effect % in the 30th minute” value worked out at 45.5%.
Take `COc1cc2c(cc1OC)C(=C(C#N)SCC(O)CN1CCCC1)NCC2` (centres unmarked) [Example 12, 2-(6,7-dimethoxy-1,2,3,4-tetrahydro-1-isoquinolinylidene)-2-[2-hydroxy-3-(1-pyrrolidinyl)propyl]mercaptoacetonitrile hydrochloride hemihydrate]: the change in vivo at 50 mg/kg is -27.2% in assay [3] (1.5 hours), -18.9% in assay [3] (3 hours) and -17.6% in assay [3] (4.5 hours). The Percentage of inhibition is listed as -20.2% in assay [1] (30 minutes); -15.6% in assay [1] (60 minutes); -14.7% in assay [1] (90 minutes); -14.6% in assay [1] (120 minutes); -12.6% in assay [1] (180 minutes). The IC50 in assay [4] was 15.5 µM.
For the compound `N#CC(SCC(O)CN1CCCCC1)=C1NCCc2ccccc21` (centres unmarked) [Example 14, 2-(1,2,3,4-tetrahydro-1-isoquinolinylidene)-2-[2-hydroxy-3-(1-piperidinyl)propyl]mercaptoacetonitrile], the change in vivo at 50 mg/kg in assay [3] (1.5 hours) is -20.9%; in assay [3] (3 hours), -20%; in assay [3] (4.5 hours), -20%. In assay [4], the IC50 was 26.3 µM. Further, in assay [2], the “Percentage of inhibition of the active local anaphylactic reaction” value is listed as -44.1%.
For the compound `COc1cc2c(cc1OC)C(=C(C#N)SCC(O)CN1CCOCC1)NCC2` (centres unmarked) [Example 17, 2-(6,7-dimethoxy-1,2,3,4-tetrahydro-1-isoquinolinylidene)-2-[2-hydroxy-3-(4-morpholinyl)propyl]mercaptoacetonitrile hydrochloride], the results for the change in vivo at 50 mg/kg in assay [3] (1.5 hours), in assay [3] (3 hours) and in assay [3] (4.5 hours) were -4.2%, 0% and 0%, respectively. In addition, the Percentage of inhibition is listed as 27.5% in assay [1] (30 minutes); 32.5% in assay [1] (60 minutes); 32.1% in assay [1] (90 minutes); 32.4% in assay [1] (120 minutes); 20.3% in assay [1] (180 minutes). Moreover, the IC50 in assay [4] is 1.82 µM. Moreover, the “Percentage of inhibition of the active local anaphylactic reaction” value in assay [2] is listed as -53.4%.
For `COc1cc2c(cc1OC)C(=C(C#N)SCC(O)CN1CCCCCC1)NCC2` (centres unmarked) [Example 19, 2-(6,7-dimethoxy-1,2,3,4-tetrahydro-1-isoquinolinylidene)-2-(3-hexamethylenimino-2-hydroxypropyl)mercaptoacetonitrile], the change in vivo at 50 mg/kg in assay [3] (1.5 hours) was -29%; in assay [3] (3 hours), -24.2%; in assay [3] (4.5 hours), -19.5%. Further, the Percentage of inhibition is reported as -28.2% in assay [1] (30 minutes); -26.6% in assay [1] (60 minutes); -27.3% in assay [1] (90 minutes); -27.8% in assay [1] (120 minutes); -22.8% in assay [1] (180 minutes). Besides, in assay [4], the IC50 is 97.7 µM.
`COc1cc2c(cc1OC)C(=C(C#N)SCC(CN1CCOCC1)OC(=O)c1ccccc1)NCC2` (centres unmarked) [Example 25, 2-(6,7-dimethoxy-1,2,3,4-tetrahydro-1-isoquinolinylidene)-2-[2-benzoyloxy-3-(4-morpholinyl)propyl]mercaptoacetonitrile]: the change in vivo at 50 mg/kg in assay [3] (1.5 hours) was -26.6%; in assay [3] (3 hours) it was -17.7%; in assay [3] (4.5 hours) it was -16%. Further, the IC50 is 15.5 µM in assay [5] and 0.417 µM in assay [4].
`CCOc1cc2c(cc1OCC)C(=C(C#N)SCC(CN1CCOCC1)OC(=O)c1ccccc1)NCC2` (centres unmarked) [Example 26, 2-(6,7-diethoxy-1,2,3,4-tetrahydro-1-isoquinolinylidene)-2-[2-benzoyloxy-3-(4-morpholinyl)-propyl]mercaptoacetonitrile hydrochloride]: the IC50 in assay [5] was 15.5 µM; in assay [4] it was 8.71 µM.
Regarding `COc1ccc2cc([C@H](C)C(=O)O)ccc2c1` [Naproxen, reference compound], the Protective effect % in assay [3] (1.5 hours) was 33.2%; in assay [3] (3 hours), 44.3%; in assay [3] (4.5 hours), 40.4%; in assay [1] (oral dose 20 mg/kg (Naproxen), 30 minutes) it was 16.9%; in assay [1] (oral dose 20 mg/kg (Naproxen), 60 minutes) it was 20.1%; in assay [1] (oral dose 20 mg/kg (Naproxen), 90 minutes), 18.9%. Moreover, the Protective effect % in assay [1] (oral dose 20 mg/kg (Naproxen), 120 minutes) is on record as 23.3%; in assay [1] (oral dose 20 mg/kg (Naproxen), 180 minutes) it was 21.6%. Besides, in assay [2] (oral dose 30 mg/kg (Naproxen)), the “Protective effect % in the 30th minute” value was determined as 2.2%.
Regarding `Cn1c(=O)c2[nH]cnc2n(C)c1=O` [theophylline, reference compound], the “pd'2 value against serotonin” value turned out to be 6.16 in assay [6] and 6.49 in assay [6] (listed as Theophylline). In addition, the results for the IC50 in assay [5] and in assay [4] were 0.372 µM and 1.58 µM, respectively.

For the origin of these results see patent US5179089A, “Isoquinoline compounds, compositions and use” (Chinoin Gyogyszer es Vegyeszeti Termekek Gyara Rt., priority 1990, dated 1993).
